Experimental data from patent publication US10316017B2, “COT modulators and methods of use thereof” (Gilead Sciences, Inc., priority 2015, dated 2019).

Biological target: T1, human Cot catalytic domain (30-397 amino acids) (Homo sapiens, UniProt P41279)
T1 construct: Purified recombinant human Cot catalytic domain (30-397 amino acids) was purchased from Cama Biosciences; purchased Cama Biosciences (so in the source)
Experiment: High Throughput Cot Biochemical Assay (KinEASE TR-FRET)
Settings: Cot KinEASE TR-FRET, 400 μM ATP; read-out: IC50 HTRF
Procedure, shortened: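 Reaction of 5 nM recombinant human Cot catalytic domain (aa 30-397) with 1 μM STK3 peptide (XL665-labeled) and 400 μM ATP in 10 mM MOPS pH 7.0, 10 mM MgOAc, 1 mM DTT, 0.5 mg/mL BSA, 0.1% DMSO. Phosphopeptide detected by TR-FRET with europium anti-phospho antibody.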

T1 sequence (P41279 30-397): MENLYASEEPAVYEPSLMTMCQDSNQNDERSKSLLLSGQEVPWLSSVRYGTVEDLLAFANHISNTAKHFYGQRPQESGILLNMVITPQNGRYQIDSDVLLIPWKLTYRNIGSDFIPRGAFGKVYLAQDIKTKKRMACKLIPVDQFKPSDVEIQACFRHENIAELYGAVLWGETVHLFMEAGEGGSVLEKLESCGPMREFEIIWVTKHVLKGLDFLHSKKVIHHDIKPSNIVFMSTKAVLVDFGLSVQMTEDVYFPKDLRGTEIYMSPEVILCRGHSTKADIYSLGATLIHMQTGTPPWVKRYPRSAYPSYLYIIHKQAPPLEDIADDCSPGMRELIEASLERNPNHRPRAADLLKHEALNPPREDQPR

IC50 [nM]	SMILES
5	CCN1CCC(n2cc(C(Nc3cc(Cl)c4ncc(C#N)c(Nc5ccc(F)c(Cl)c5)c4c3)c3ccc(F)cc3)nn2)CC1 (centres unmarked) [Example 908, 8-chloro-4-((3-chloro-4-fluorophenyl)amino)-6-(((1-(1-ethylpiperidin-4-yl)-1H-1,2,3-triazol-4-yl)(4-fluorophenyl)methyl)amino) quinoline-3-carbonitrile]
324	CC(C)(C)N1CCC(n2cc([C@@H](Nc3cc(Cl)c4ncc(C#N)c(Nc5cccnc5)c4c3)c3ccc(Cl)cc3)nn2)CC1 [Example 772, (S)-6-(((1-(1-(tert-butyl)piperidin-4-yl)-1H-1,2,3-triazol-4-yl)(4-chlorophenyl)methyl)amino)-8-chloro-4-(pyridin-3-ylamino)quinoline-3-carbonitrile]
2340	CC(C)(C)N1CCC(n2cc([C@@H](Nc3ccc4nc(N)c(C#N)c(Nc5ccc(F)c(Cl)c5)c4c3)c3ccc(Cl)cc3)nn2)CC1 [Example 760, (S)-2-amino-6-(((1-(1-(tert-butyl)piperidin-4-yl)-1H-1,2,3-triazol-4-yl)(4-chlorophenyl)methyl)amino)-4-((3-chloro-4-fluorophenyl)amino)quinoline-3-carbonitrile]
90	N#Cc1cnc2c(Cl)cc(N[C@@H](c3ccc(F)cc3)c3cn(C4CCN(C5CC(F)(F)C5)CC4)nn3)cc2c1Nc1ccc(F)c(Cl)c1 [Example 822, (S)-8-chloro-4-((3-chloro-4-fluorophenyl)amino)-6-(((1-(1-(3,3-difluorocyclobutyl)piperidin-4-yl)-1H-1,2,3-triazol-4-yl)(4-fluorophenyl)methyl)amino) quinoline-3-carbonitrile]
7700	N#Cc1cnc2c(Cl)cc(NC(c3ccc(Cl)cc3)c3cn([C@H]4CCN(C(=O)OCc5ccccc5)C4)nn3)cc2c1Nc1ccc(F)c(Cl)c1 (stereo partly drawn) [Example 878, benzyl (3S)-3-(4-(((8-chloro-4-((3-chloro-4-fluorophenyl)amino)-3-cyanoquinolin-6-yl)amino)(4-chlorophenyl)methyl)-1H-1,2,3-triazol-1-yl)pyrrolidine-1-carboxylate]
23	N#Cc1cnc2c(Cl)cc(NC(c3ccc(Cl)cc3)c3cn(C4CCNCC4)nn3)cc2c1Nc1ccc(F)c(Cl)c1 (centres unmarked) [Example 914, 8-chloro-4-((3-chloro-4-fluorophenyl)amino)-6-(((4-chlorophenyl)(1-(piperidin-4-yl)-1H-1,2,3-triazol-4-yl)methyl)amino)quinoline-3-carbonitrile]
12	Cn1cc(C(Nc2cc(Cl)c3ncc(C#N)c(Nc4ccc(F)c(Cl)c4)c3c2)c2cccc(C3OCCO3)c2)nn1 (centres unmarked) [Example 730, 6-(((3-(1,3-dioxolan-2-yl)phenyl)(1-methyl-1H-1,2,3-triazol-4-yl)methyl)amino)-8-chloro-4-((3-chloro-4-fluorophenyl)amino)quinoline-3-carbonitrile]
444	N#Cc1cnc2c(Cl)cc(NC(c3ccc(F)cc3)c3nccs3)cc2c1Nc1ccc(F)c(Cl)c1 (centres unmarked) [Example 782, 8-chloro-4-((3-chloro-4-fluorophenyl)amino)-6-(((4-fluorophenyl)(thiazol-2-yl)methyl)amino)quinoline-3-carbonitrile]
84	CC1(C)CNCCC1n1cc(C(Nc2cc(Cl)c3ncc(C#N)c(Nc4ccc(F)c(Cl)c4)c3c2)c2ccc(F)cc2)nn1 (centres unmarked) [Example 840, 8-chloro-4-((3-chloro-4-fluorophenyl)amino)-6-(((1-(3,3-dimethylpiperidin-4-yl)-1H-1,2,3-triazol-4-yl)(4-fluorophenyl)methyl)amino) quinoline-3-carbonitrile]
338	C#CC(c1ccc(Cl)cc1)N(c1cc(Cl)c2ncc(C#N)c(Nc3cncc(Cl)c3)c2c1)C(c1ccc(Cl)cc1)c1cn(C2CCN(C(C)(C)C)CC2)nn1 (centres unmarked) [Example 725, 6-(((1-(1-(tert-butyl)piperidin-4-yl)-1H-1,2,3-triazol-4-yl)(4-chlorophenyl)methyl)(1-(4-chlorophenyl)prop-2-yn-1-yl)amino)-8-chloro-4-((5-chloropyridin-3-yl)amino)quinoline-3-carbonitrile]
2	COCc1cccc([C@H](Nc2cc(Cl)c3ncc(C#N)c(Nc4ccc(F)c(Cl)c4)c3c2)c2cn(C3CCN(C(C)(C)C)CC3)nn2)c1 [Compound 38]
9	CCN1CCC(n2cc(C(Nc3ccc4ncc(C#N)c(Nc5ccc(F)c(Cl)c5)c4c3)c3ccc(F)cc3)nn2)CC1 (centres unmarked) [Example 832, 4-((3-chloro-4-fluorophenyl)amino)-6-(((1-(1-ethylpiperidin-4-yl)-1H-1,2,3-triazol-4-yl)(4-fluorophenyl)methyl)amino) quinoline-3-carbonitrile]
22	Cn1cc(C(Nc2cc(Cl)c3ncc(C#N)c(Nc4ccc(F)c(Cl)c4)c3c2)c2cccc(CN3CCCC3)c2)nn1 (centres unmarked) [Example 852, 8-chloro-4-((3-chloro-4-fluorophenyl)amino)-6-(((1-methyl-1H-1,2,3-triazol-4-yl)(3-(pyrrolidin-1-ylmethyl)phenyl)methyl)amino)quinoline-3-carbonitrile]
4	CCN1CCC(n2cc(C(Nc3cc(Cl)c4ncc(C#N)c(Nc5ccc(F)c(Cl)c5)c4c3)c3ccccc3)nn2)CC1 (centres unmarked) [Example 922, 8-chloro-4-((3-chloro-4-fluorophenyl)amino)-6-(((1-(1-ethylpiperidin-4-yl)-1H-1,2,3-triazol-4-yl)(phenyl)methyl)amino) quinoline-3-carbonitrile]
> 10000	N#Cc1cnc2c(Cl)cc(NC(c3ccc(F)cc3)c3ncccn3)cc2c1Nc1ccc(F)c(Cl)c1 (centres unmarked) [Example 800, 8-chloro-4-((3-chloro-4-fluorophenyl)amino)-6-(((4-fluorophenyl)(pyrimidin-2-yl)methyl)amino)quinoline-3-carbonitrile]
34	CCN1CCC(n2cc(C(Nc3ccc4ncc(C#N)c(Nc5ccc(F)c(Cl)c5)c4c3)c3ccc(F)cc3)nn2)CC1 (centres unmarked) [Example 827, 4-((3-chloro-4-fluorophenyl)amino)-6-(((1-(1-ethylpiperidin-4-yl)-1H-1,2,3-triazol-4-yl)(4-fluorophenyl)methyl)amino) quinoline-3-carbonitrile]
119	CCN1CC[C@@H](n2cc(C(Nc3cc(Cl)c4ncc(C#N)c(Nc5ccc(F)c(Cl)c5)c4c3)c3ccc(Cl)cc3)nn2)C1 (stereo partly drawn) [Example 868, 8-chloro-4-((3-chloro-4-fluorophenyl)amino)-6-(((4-chlorophenyl)(1-((R)-1-ethylpyrrolidin-3-yl)-1H-1,2,3-triazol-4-yl)methyl)amino)quinoline-3-carbonitrile]
13	CCN1CCC(n2cc(C(Nc3cc(Cl)c4ncc(C#N)c(Nc5ccc(F)c(Cl)c5)c4c3)c3ccc(Cl)cc3)nn2)CC1 (centres unmarked) [Compound 6]
> 10000	N#Cc1cnc2c(Cl)cc(NC(c3cc(F)c(F)c(F)c3)c3cn(C4CCN(C(=O)OCc5ccccc5)CC4)nn3)cc2c1Nc1ccc(F)c(Cl)c1 (centres unmarked) [Example 890, benzyl 4-(4-(((8-chloro-4-((3-chloro-4-fluorophenyl)amino)-3-cyanoquinolin-6-yl)amino)(3,4,5-trifluorophenyl)methyl)-1H-1,2,3-triazol-1-yl)piperidine-1-carboxylate]
50	N#Cc1cnc2c(Cl)cc(NC(c3ccccc3)c3c[nH]nn3)cc2c1Nc1ccc(F)c(Cl)c1 (centres unmarked) [Example 888, 8-chloro-4-((3-chloro-4-fluorophenyl)amino)-6-((phenyl(1H-1,2,3-triazol-4-yl)methyl)amino)quinoline-3-carbonitrile]
8	N#Cc1cnc2c(Cl)cc(NC(c3cccc(F)c3)c3cn(C4CCNCC4)nn3)cc2c1Nc1ccc(F)c(Cl)c1 (centres unmarked) [Example 906, 8-chloro-4-((3-chloro-4-fluorophenyl)amino)-6-(((3-fluorophenyl)(1-(piperidin-4-yl)-1H-1,2,3-triazol-4-yl)methyl)amino)quinoline-3-carbonitrile]
52	N#Cc1cnc2c(Cl)cc(NC(c3ccc(Cl)c(Cl)c3)c3cn(C4CCNCC4)nn3)cc2c1Nc1ccc(F)c(Cl)c1 (centres unmarked) [Example 910, 8-chloro-4-((3-chloro-4-fluorophenyl)amino)-6-(((3,4-dichlorophenyl)(1-(piperidin-4-yl)-1H-1,2,3-triazol-4-yl)methyl)amino)quinoline-3-carbonitrile]
2100	N#Cc1cnc2c(Cl)cc(NC(c3ccc(Cl)cc3)c3cn([C@@H]4CCN(C(=O)OCc5ccccc5)C4)nn3)cc2c1Nc1ccc(F)c(Cl)c1 (stereo partly drawn) [Example 866, benzyl (3R)-3-(4-(((8-chloro-4-((3-chloro-4-fluorophenyl)amino)-3-cyanoquinolin-6-yl)amino)(4-chlorophenyl)methyl)-1H-1,2,3-triazol-1-yl)pyrrolidine-1-carboxylate]
34	CC(C)(C)n1cc([C@@H](Nc2cc(Cl)c3ncc(C#N)c(Nc4ccc(F)c(Cl)c4)c3c2)c2ccc(F)cc2)nn1 [Example 811, (S)-6-(((1-(tert-butyl)-1H-1,2,3-triazol-4-yl)(4-fluorophenyl)methyl)amino)-8-chloro-4-((3-chloro-4-fluorophenyl)amino)quinoline-3-carbonitrile]
46	N#Cc1cnc2c(Cl)cc(NC(c3ccc(Cl)cc3)c3cn([C@@H]4CCNC4)nn3)cc2c1Nc1ccc(F)c(Cl)c1 (stereo partly drawn) [Example 867, 8-chloro-4-((3-chloro-4-fluorophenyl)amino)-6-(((4-chlorophenyl)(1-((R)-pyrrolidin-3-yl)-1H-1,2,3-triazol-4-yl)methyl)amino)quinoline-3-carbonitrile]

Same assay, conditions: first value of the cell IC50/EC50; 400 μM ATP, 5 nM Cot; read-out: IC50/EC50 [nM]: IC50 (Cot)

SMILES	IC50 [nM]
CCN1CCC(n2cc([C@H](C)Nc3cc(Cl)c4ncc(C#N)c(Nc5ccc(F)c(Cl)c5)c4c3)nn2)CC1 [Comparative Example 2, reference compound]	62
